Here are results for 28 molecules from PubChem BioAssay AID330 (DTP/NCI, 2004).

The assay concerns P388 leukemia ip, CD2F1 mice, survival T/C. In words: NCI In Vivo Anticancer Drug Screen. Data for tumor model P388 Leukemia (intraperitoneal) in CD2F1 (CDF1) mice. To be noted: endpoint: median survival time, higher = longer survival. In a few lines: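 Mice carrying the transplanted tumor received test compound or vehicle. Survival was recorded in each group, and the value is the treated-group measurement divided by that of the vehicle-treated control group.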

Setting [1] is: dose: 50.0 mg/kg/injection, schedule: Q01DX009 (ip), vehicle: Klucel (hydroxypropylcellulose) (HPC).
[2] abbreviates: dose: 100.0 mg/kg/injection, schedule: Q01DX009 (ip), vehicle: Klucel (hydroxypropylcellulose) (HPC).
[3] abbreviates: dose: 200.0 mg/kg/injection, schedule: Q01DX009 (ip), vehicle: Klucel (hydroxypropylcellulose) (HPC).
[4] abbreviates: dose: 50.0 mg/kg/injection, schedule: Q01DX005 (ip), vehicle: saline with Tween-80.
Setting [5] is: dose: 100.0 mg/kg/injection, schedule: Q01DX005 (ip), vehicle: saline with Tween-80.
[6] abbreviates: dose: 200.0 mg/kg/injection, schedule: Q01DX005 (ip), vehicle: saline with Tween-80.
Where [7] appears, read: dose: 60.0 mg/kg/injection, schedule: Q01DX005 (ip), vehicle: saline with Tween-80.
Setting [8] is: dose: 120.0 mg/kg/injection, schedule: Q01DX005 (ip), vehicle: saline with Tween-80.
The mark [9] stands for this setting: dose: 240.0 mg/kg/injection, schedule: Q01DX005 (ip), vehicle: saline with Tween-80.
Where [10] appears, read: dose: 25.0 mg/kg/injection, schedule: Q01DX009 (ip), vehicle: saline.
[11] abbreviates: dose: 50.0 mg/kg/injection, schedule: Q01DX009 (ip), vehicle: saline.
The mark [12] stands for this setting: dose: 100.0 mg/kg/injection, schedule: Q01DX009 (ip), vehicle: saline.
Setting [13] is: dose: 200.0 mg/kg/injection, schedule: Q01DX009 (ip), vehicle: saline.
The mark [14] stands for this setting: dose: 6.25 mg/kg/injection, schedule: Q01DX009 (ip), vehicle: saline with Tween-80.
[15] abbreviates: dose: 12.5 mg/kg/injection, schedule: Q01DX009 (ip), vehicle: saline with Tween-80.
Where [16] appears, read: dose: 25.0 mg/kg/injection, schedule: Q01DX009 (ip), vehicle: saline with Tween-80.
[17] abbreviates: dose: 50.0 mg/kg/injection, schedule: Q01DX009 (ip), vehicle: saline with Tween-80.
Where [18] appears, read: dose: 100.0 mg/kg/injection, schedule: Q01DX009 (ip), vehicle: saline with Tween-80.
Where [19] appears, read: dose: 200.0 mg/kg/injection, schedule: Q01DX009 (ip), vehicle: saline with Tween-80.
[20] abbreviates: dose: 50.0 mg/kg/injection, schedule: Q04DX003 (ip), vehicle: saline with Tween-80.

The structures appear in SMILES notation. Several values for one entry are separate records, joined by “and”; a condition that tells them apart may be missing. Equal values may be shown once. Toxic doses and inconclusive results are not listed.

As for `O=C(N1CCN(C(=O)S(=O)(=O)c2ccccc2)CC1)S(=O)(=O)c1ccccc1`, the T/C is, setting by setting: under setting [1], 92 % of control; under setting [2], 100 % of control; under setting [3], 100 % of control.
For the molecule `COc1cc2c(cc1OC)C(CCCCCCCC1NCCc3cc(OC)c(OC)cc31)NCC2` (configuration not stated), the T/C is 102 % of control (dose: 12.5 mg/kg/injection, schedule: Q01DX005 (ip), vehicle: saline); 96 % of control (dose: 25.0 mg/kg/injection, schedule: Q01DX005 (ip), vehicle: saline); 100 % of control and 101 % of control (dose: 50.0 mg/kg/injection, schedule: Q01DX005 (ip), vehicle: saline).
As to `CN=C(N)N/N=C(C)/C(C)=C/c1ccccc1`, under “dose: 25.0 mg/kg/injection, schedule: Q04DX002 (ip), vehicle: saline with Tween-80”, the T/C was 104 % of control.
As for `CCCCCCCCSC1=CC(=O)C(OC)=C(OC)C1=O`, the T/C runs as follows: (dose: 4.0 mg/kg/injection, schedule: Q01DX009 (ip), vehicle: Klucel (hydroxypropylcellulose) (HPC)) 92 % of control; (dose: 8.0 mg/kg/injection, schedule: Q01DX009 (ip), vehicle: Klucel (hydroxypropylcellulose) (HPC)) 95 % of control.
Consider `Cc1nc2ccccc2nc1NNc1ccccc1`, for which the T/C reads like this: under setting [4], 90 % of control; under setting [5], 87 % of control; under setting [6], 87 % of control.
For the molecule `C=CCN(CC=C)C(=O)Nc1cc(OC)ccc1OC`, the T/C is 97 % of control under setting [7], 97 % of control under setting [8] and 103 % of control under setting [9].
In the case of `CC(C)(C)c1cc(C(C)(C)C)c(P(C(O[Si](C)(C)C)=C(c2ccccc2)c2ccccc2)C(O[Si](C)(C)C)=C(c2ccccc2)c2ccccc2)c(C(C)(C)C)c1`, the T/C is 94 % of control under setting [7], 99 % of control under setting [8] and 93 % of control under setting [9].
With `O=c1sc2ccccc2nc1NNc1ccccc1`, the T/C by setting is: under setting [4], 90 % of control; under setting [5], 90 % of control.
As to `CCO/C=C1/N=C(c2cccc3ccccc23)OC1=O`, the T/C runs as follows: under setting [7], 99 % of control; under setting [8], 99 % of control; under setting [9], 99 % of control.
Turning to `CCOC(=O)CN(C=O)C(C)c1ccccc1` (configuration not stated), the T/C runs as follows: under setting [10], 114 % of control; under setting [11], 99 % of control; under setting [12], 98 % of control; under setting [13], 99 % of control.
In the case of `CCCCOc1cc(C(=O)NCCN(CC)CC)c2ccccc2n1`, the T/C reads like this: under setting [14], 100 % of control; under setting [15], 113 % of control; under setting [16], 100 % of control.
For the molecule `CCCCP(=O)(CCCC)CCCC.CCCCP(=O)(CCCC)CCCC.CCCCP(=O)(CCCC)CCCC.CCCCP(=O)(CCCC)CCCC.[Ce+3].[O-][Cl+3]([O-])([O-])O`, the T/C reads like this: under setting [17], 97 % of control; under setting [18], 92 % of control; under setting [19], 86 % of control.
For `COc1ccc(C(=O)C(CCC(=O)c2ccc(O)cc2)S(C)(=O)=O)cc1` (configuration not stated), the T/C by setting is: (dose: 50.0 mg/kg/injection, schedule: Q01DX005 (ip), vehicle: Klucel (hydroxypropylcellulose) (HPC)) 100 % of control; (dose: 100.0 mg/kg/injection, schedule: Q01DX005 (ip), vehicle: Klucel (hydroxypropylcellulose) (HPC)) 93 % of control; (dose: 200.0 mg/kg/injection, schedule: Q01DX005 (ip), vehicle: Klucel (hydroxypropylcellulose) (HPC)) 96 % of control.
`CCC1(c2ccccc2)Nc2ccccc2C1=Nc1ccccc1` (configuration not stated): the T/C under setting [20] was 100 % of control; the T/C (dose: 100.0 mg/kg/injection, schedule: Q04DX003 (ip), vehicle: saline with Tween-80) is 99 % of control; the T/C (dose: 200.0 mg/kg/injection, schedule: Q04DX003 (ip), vehicle: saline with Tween-80) was 90 % of control.
In the case of `Oc1cc(CN2CCCC2)c(O)cc1CN1CCCC1`, the T/C was 103 % of control and 111 % of control under setting [16]; 103 % of control and 111 % of control under setting [17]; 110 % of control and 111 % of control under setting [18].
`CCN(Cc1ccc(CN(CC)C(=O)c2sc3ccccc3c2Cl)cc1)C(=O)c1sc2ccccc2c1Cl`: the T/C by setting is: under setting [11], 101 % of control; under setting [12], 100 % of control; under setting [13], 93 % of control.
With `Oc1ccc2ccccc2c1CN(Cc1c(O)ccc2ccccc12)C1CCCCC1`, the T/C runs as follows: under setting [4], 97 % of control; under setting [5], 96 % of control; under setting [6], 104 % of control.
For the molecule `N#C/C(=C\c1ccc(Cl)cc1Cl)C(=O)N/N=C/c1ccc(Cl)cc1Cl`, the T/C is, setting by setting: (dose: 100.0 mg/kg/injection, schedule: Q04DX003 (ip), vehicle: saline) 95 % of control; (dose: 200.0 mg/kg/injection, schedule: Q04DX003 (ip), vehicle: saline) 97 % of control; (dose: 400.0 mg/kg/injection, schedule: Q04DX003 (ip), vehicle: saline) 90 % of control.
For the molecule `CCCCCC(C[N+](C)(C)C)C(=O)/C=C/c1ccc(Cl)c(Cl)c1` (configuration not stated), the T/C was 105 % of control (dose: 3.12 mg/kg/injection, schedule: Q01DX009 (ip), vehicle: saline with Tween-80); 120 % of control under setting [14]; 114 % of control (dose: 6.25 mg/kg/injection, schedule: Q01DX009 (ip), vehicle: saline); 101 % of control under setting [15]; 114 % of control and 124 % of control (dose: 12.5 mg/kg/injection, schedule: Q01DX009 (ip), vehicle: saline); 111 % of control under setting [16]. The T/C under setting [10] is 110 % of control.
Take `Cc1ccc(Nc2ncnc3c2c(=O)n(C)c(=O)n3C)cc1`: the T/C runs as follows: (dose: 30.0 mg/kg/injection, schedule: Q01DX005 (ip), vehicle: saline with Tween-80) 88 % of control; under setting [7], 90 % of control; under setting [8], 90 % of control.
With `NC1=NC2C(Cl)=CC=CC2S1` (configuration not stated), the T/C is 109 % of control under setting [1] and 107 % of control under setting [2].
In the case of `c1onc2c1C1CC3CC(C1)CC2C3`, the T/C was 96 % of control under setting [1], 89 % of control under setting [2] and 92 % of control under setting [3].
As for `O=C(CN1CC1)NCCCCCCCCNC(=O)CN1CC1`, the T/C reads like this: (dose: 25.0 mg/kg/injection, schedule: Q04DX003 (ip), vehicle: saline with Tween-80) 159 % of control; (dose: 33.0 mg/kg/injection, schedule: Q04DX003 (ip), vehicle: saline with Tween-80) 200 % of control; under setting [20], 181 % of control and 209 % of control.
Regarding `C/C(=N\NC(=S)Nc1ccc(C(=O)O)cc1C)c1ccccn1`, the T/C runs as follows: under setting [4], 114 % of control; under setting [5], 121 % of control.
Consider `N#CC(c1ccc(Cl)cc1)C(c1ccccc1)c1ccccc1` (configuration not stated), for which the T/C under setting [17] was 112 % of control, the T/C under setting [18] is 107 % of control and the T/C under setting [19] was 112 % of control.
Regarding `Cc1ccc(Cl)c(C(O)(C(F)(F)F)C(F)(F)F)c1`, the T/C (dose: 100.0 mg/kg/injection, schedule: Q01DX001 (ip), vehicle: other) is 95 % of control; the T/C (dose: 100.0 mg/kg/injection, schedule: Q01DX001 (ip), vehicle: saline with Tween-80) is 108 % of control; the T/C (dose: 200.0 mg/kg/injection, schedule: Q01DX001 (ip), vehicle: other) is 92 % of control; the T/C (dose: 200.0 mg/kg/injection, schedule: Q01DX001 (ip), vehicle: saline with Tween-80) is 108 % of control; the T/C (dose: 400.0 mg/kg/injection, schedule: Q01DX001 (ip), vehicle: saline with Tween-80) was 93 % of control.
Regarding `C[N+](C)(C)c1ccc(Cc2ccc([N+](C)(C)C)cc2)cc1`, the T/C runs as follows: (dose: 6.3 micrograms/kg/injection, schedule: Q04DX002 (ip), vehicle: saline) 107 % of control; (dose: 12.5 micrograms/kg/injection, schedule: Q04DX002 (ip), vehicle: saline) 111 % of control; (dose: 25.0 micrograms/kg/injection, schedule: Q04DX002 (ip), vehicle: saline) 103 % of control.
As to `Cc1ccc(S(=O)(=O)OCOS(=O)(=O)c2ccc(C)cc2)cc1`, the T/C was 101 % of control (dose: 25.0 mg/kg/injection, schedule: Q01DX009 (ip), vehicle: Klucel (hydroxypropylcellulose) (HPC)); 120 % of control and 121 % of control under setting [1]; 122 % of control under setting [2]; 123 % of control under setting [3]; 160 % of control (dose: 400.0 mg/kg/injection, schedule: Q01DX009 (ip), vehicle: Klucel (hydroxypropylcellulose) (HPC)).
